{"source": "ChEMBL document CHEMBL5463729", "about": "“Data for DCP probe BAY 1753011” (2023)", "conditions_in_all_cases": "Compound concentration 10.0 uM", "key": {"[1]": {"biological_target": "Dual specificity protein kinase TTK (Homo sapiens) (UniProt P33981)", "sequence (P33981 whole entry)": "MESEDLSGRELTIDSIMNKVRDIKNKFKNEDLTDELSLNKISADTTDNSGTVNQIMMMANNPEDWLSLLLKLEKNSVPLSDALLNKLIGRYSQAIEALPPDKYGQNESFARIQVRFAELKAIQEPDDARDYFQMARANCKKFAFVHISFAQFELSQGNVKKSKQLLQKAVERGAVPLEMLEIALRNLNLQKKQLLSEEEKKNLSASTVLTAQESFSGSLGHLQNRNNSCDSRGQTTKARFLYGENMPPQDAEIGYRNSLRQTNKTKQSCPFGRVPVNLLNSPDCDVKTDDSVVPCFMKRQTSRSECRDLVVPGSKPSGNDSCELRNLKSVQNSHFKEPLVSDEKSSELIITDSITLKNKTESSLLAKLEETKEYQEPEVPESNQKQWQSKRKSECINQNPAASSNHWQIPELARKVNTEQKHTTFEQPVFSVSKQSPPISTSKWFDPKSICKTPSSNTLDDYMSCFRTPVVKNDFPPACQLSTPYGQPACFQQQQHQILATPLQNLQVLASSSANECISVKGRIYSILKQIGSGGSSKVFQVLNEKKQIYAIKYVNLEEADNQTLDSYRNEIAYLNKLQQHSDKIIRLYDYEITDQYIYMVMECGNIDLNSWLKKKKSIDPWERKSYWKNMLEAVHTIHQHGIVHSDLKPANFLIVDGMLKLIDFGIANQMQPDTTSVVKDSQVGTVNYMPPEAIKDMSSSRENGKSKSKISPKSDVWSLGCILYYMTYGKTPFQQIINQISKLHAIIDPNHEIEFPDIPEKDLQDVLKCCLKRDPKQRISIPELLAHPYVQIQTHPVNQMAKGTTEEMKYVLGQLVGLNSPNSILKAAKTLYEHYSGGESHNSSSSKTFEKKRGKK", "assay": "Inhibition of TTK(h) at 10.0 µM in the Eurofins Kinase panel"}, "[2]": {"biological_target": "Ribosomal protein S6 kinase beta-1 (Homo sapiens) (UniProt P23443)", "assay": "Inhibition of p70S6K(h) at 10.0 µM in the Eurofins Kinase panel"}, "[3]": {"biological_target": "Activin receptor type-1 (Homo sapiens) (UniProt Q04771)", "assay": "Inhibition of ALK2(h) at 10.0 µM in the Eurofins Kinase panel"}, "[4]": {"biological_target": "GABA-A receptor; anion channel (Rattus norvegicus) (UniProt O09028+P15431+P18506+P18508+P19969+P20236+P23574+P23576+P28471+P28473+P30191+P62813+P63079+P63138+Q91ZM7+Q9ES14)"}, "[5]": {"biological_target": "Death-associated protein kinase 2 (Homo sapiens) (UniProt Q9UIK4)", "sequence (Q9UIK4 whole entry, looked up)": "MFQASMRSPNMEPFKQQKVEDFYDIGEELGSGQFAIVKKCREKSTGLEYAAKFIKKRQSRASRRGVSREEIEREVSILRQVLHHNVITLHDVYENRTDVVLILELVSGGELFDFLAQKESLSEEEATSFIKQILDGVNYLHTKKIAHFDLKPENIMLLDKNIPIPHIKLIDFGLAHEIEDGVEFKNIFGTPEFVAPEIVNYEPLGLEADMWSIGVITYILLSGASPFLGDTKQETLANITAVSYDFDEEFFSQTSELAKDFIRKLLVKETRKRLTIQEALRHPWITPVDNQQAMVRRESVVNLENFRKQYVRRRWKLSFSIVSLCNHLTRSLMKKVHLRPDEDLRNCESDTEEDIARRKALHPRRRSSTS", "assay": "Inhibition of DAPK2(h) at 10.0 µM in the Eurofins Kinase panel"}, "[6]": {"biological_target": "Receptor-type tyrosine-protein kinase FLT3 (Homo sapiens) (UniProt P36888)", "assay": "Inhibition of Flt3(h) at 10.0 µM in the Eurofins Kinase panel"}, "[7]": {"biological_target": "Serine/threonine-protein kinase D2 (Homo sapiens) (UniProt Q9BZL6)", "sequence (Q9BZL6 whole entry)": "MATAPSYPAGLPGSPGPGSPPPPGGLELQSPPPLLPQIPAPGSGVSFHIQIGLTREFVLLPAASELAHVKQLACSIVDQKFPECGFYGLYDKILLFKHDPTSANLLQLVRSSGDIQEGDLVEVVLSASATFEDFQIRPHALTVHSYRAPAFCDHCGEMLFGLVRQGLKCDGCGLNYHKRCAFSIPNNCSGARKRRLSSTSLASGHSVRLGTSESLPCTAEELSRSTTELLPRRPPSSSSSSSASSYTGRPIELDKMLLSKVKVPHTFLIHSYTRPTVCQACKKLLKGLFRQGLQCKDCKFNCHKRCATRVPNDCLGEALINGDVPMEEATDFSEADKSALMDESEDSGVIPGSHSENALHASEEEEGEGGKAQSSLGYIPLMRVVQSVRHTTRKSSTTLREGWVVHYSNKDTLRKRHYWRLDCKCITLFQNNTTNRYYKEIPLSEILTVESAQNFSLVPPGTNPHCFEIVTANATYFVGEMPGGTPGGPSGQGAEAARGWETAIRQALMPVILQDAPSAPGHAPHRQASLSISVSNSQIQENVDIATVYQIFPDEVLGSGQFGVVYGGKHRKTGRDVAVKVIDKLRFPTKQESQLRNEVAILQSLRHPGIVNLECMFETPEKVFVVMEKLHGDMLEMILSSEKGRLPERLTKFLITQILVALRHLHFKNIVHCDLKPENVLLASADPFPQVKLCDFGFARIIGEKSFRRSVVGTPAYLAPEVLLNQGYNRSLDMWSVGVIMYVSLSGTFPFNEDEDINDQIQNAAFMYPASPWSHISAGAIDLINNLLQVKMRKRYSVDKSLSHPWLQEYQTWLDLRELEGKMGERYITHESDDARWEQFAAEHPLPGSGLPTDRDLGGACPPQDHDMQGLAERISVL", "assay": "Inhibition of PKD2(h) at 10.0 µM in the Eurofins Kinase panel"}, "[8]": {"biological_target": "Tyrosine-protein kinase Srms (Homo sapiens) (UniProt Q9H3Y6)", "assay": "Inhibition of SRMS(h) at 10.0 µM in the Eurofins Kinase panel"}, "[9]": {"biological_target": "Megakaryocyte-associated tyrosine-protein kinase (Homo sapiens) (UniProt P42679)", "sequence (P42679 whole entry)": "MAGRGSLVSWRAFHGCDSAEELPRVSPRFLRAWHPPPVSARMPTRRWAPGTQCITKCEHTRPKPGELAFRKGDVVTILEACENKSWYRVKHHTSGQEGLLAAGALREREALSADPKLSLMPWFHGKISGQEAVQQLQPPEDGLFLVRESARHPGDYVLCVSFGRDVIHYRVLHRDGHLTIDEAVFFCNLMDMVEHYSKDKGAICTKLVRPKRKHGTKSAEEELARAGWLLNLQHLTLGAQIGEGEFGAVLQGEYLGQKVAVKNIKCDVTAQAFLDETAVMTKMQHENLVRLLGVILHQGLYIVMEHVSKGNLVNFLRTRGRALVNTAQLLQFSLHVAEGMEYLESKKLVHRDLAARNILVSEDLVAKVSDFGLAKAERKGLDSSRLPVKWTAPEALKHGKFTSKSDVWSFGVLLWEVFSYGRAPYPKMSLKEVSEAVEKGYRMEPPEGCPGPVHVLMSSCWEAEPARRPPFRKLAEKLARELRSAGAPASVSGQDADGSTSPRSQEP", "assay": "Inhibition of MATK(h) at 10.0 µM in the Eurofins Kinase panel"}, "[10]": {"biological_target": "Maternal embryonic leucine zipper kinase (Homo sapiens) (UniProt Q14680)", "assay": "Inhibition of MELK(h) at 10.0 µM in the Eurofins Kinase panel"}, "[11]": {"biological_target": "eIF-2-alpha kinase GCN2 (Homo sapiens) (UniProt Q9P2K8)", "assay": "Inhibition of GCN2(h) at 10.0 µM in the Eurofins Kinase panel"}, "[12]": {"biological_target": "Ephrin type-A receptor 3 (Homo sapiens) (UniProt P29320)", "assay": "Inhibition of EphA3(h) at 10.0 µM in the Eurofins Kinase panel"}, "[13]": {"biological_target": "Serine/threonine-protein kinase PAK 6 (Homo sapiens) (UniProt Q9NQU5)", "assay": "Inhibition of PAK6(h) at 10.0 µM in the Eurofins Kinase panel"}, "[14]": {"biological_target": "Serine/threonine-protein kinase Nek9 (Homo sapiens) (UniProt Q8TD19)", "assay": "Inhibition of NEK9(h) at 10.0 µM in the Eurofins Kinase panel"}, "[15]": {"biological_target": "NT-3 growth factor receptor (Homo sapiens) (UniProt Q16288)", "sequence (Q16288 32-839 limits assumed)": "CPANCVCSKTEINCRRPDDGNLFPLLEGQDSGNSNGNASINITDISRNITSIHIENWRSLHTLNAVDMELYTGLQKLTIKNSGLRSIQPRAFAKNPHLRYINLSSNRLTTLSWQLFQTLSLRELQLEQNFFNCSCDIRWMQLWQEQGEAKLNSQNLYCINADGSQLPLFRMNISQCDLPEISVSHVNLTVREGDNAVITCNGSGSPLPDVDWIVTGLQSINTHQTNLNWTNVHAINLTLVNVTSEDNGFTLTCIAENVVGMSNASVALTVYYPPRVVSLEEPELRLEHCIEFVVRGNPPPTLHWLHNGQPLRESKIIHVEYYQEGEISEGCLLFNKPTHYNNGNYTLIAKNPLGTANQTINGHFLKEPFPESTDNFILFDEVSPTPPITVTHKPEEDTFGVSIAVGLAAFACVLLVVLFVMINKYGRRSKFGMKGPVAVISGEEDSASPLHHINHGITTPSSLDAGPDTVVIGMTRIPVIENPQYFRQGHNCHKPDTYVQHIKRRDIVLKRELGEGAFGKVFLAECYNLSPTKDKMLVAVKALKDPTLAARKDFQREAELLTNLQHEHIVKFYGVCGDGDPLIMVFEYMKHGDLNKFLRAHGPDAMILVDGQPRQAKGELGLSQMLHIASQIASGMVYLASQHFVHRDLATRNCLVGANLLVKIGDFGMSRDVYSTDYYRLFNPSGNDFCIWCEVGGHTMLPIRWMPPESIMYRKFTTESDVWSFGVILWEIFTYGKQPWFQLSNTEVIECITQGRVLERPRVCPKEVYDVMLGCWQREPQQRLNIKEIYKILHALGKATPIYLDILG", "assay": "Inhibition of TrkC(h) at 10.0 µM in the Eurofins Kinase panel"}, "[16]": {"biological_target": "Bone morphogenetic protein receptor type-1B (Homo sapiens) (UniProt O00238)", "assay": "Inhibition of ALK6(h) at 10.0 µM in the Eurofins Kinase panel"}, "[17]": {"biological_target": "Vascular endothelial growth factor receptor 3 (Homo sapiens) (UniProt P35916)", "assay": "Inhibition of Flt4(h) at 10.0 µM in the Eurofins Kinase panel"}, "[18]": {"biological_target": "Cyclin-dependent kinase 2/cyclin E1 (Homo sapiens) (UniProt P24864+P24941)", "assay": "Inhibition of CDK2/cyclinE(h) at 10.0 µM in the Eurofins Kinase panel", "assay_type": "protein-complex assay"}, "[19]": {"biological_target": "Vascular endothelial growth factor receptor 2 (Homo sapiens) (UniProt P35968)", "assay": "Inhibition of KDR(h) at 10.0 µM in the Eurofins Kinase panel"}, "[20]": {"biological_target": "T1, 5-hydroxytryptamine receptor 1A (Homo sapiens) (UniProt P08908)", "T1 sequence (whole entry)": "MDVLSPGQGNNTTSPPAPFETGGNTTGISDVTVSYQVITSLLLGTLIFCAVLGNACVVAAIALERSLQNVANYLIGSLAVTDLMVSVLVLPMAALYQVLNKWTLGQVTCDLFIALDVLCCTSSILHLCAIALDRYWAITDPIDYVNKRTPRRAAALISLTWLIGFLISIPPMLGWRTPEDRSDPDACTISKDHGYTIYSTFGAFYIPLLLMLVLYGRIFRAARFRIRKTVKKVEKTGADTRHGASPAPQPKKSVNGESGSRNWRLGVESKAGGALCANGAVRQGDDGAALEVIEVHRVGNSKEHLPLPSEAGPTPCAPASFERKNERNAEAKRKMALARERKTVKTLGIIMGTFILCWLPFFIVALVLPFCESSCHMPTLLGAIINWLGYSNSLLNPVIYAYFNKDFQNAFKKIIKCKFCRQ"}, "[21]": {"biological_target": "T2, D(4) dopamine receptor (Homo sapiens) (UniProt P21917)", "T2 sequence (whole entry)": "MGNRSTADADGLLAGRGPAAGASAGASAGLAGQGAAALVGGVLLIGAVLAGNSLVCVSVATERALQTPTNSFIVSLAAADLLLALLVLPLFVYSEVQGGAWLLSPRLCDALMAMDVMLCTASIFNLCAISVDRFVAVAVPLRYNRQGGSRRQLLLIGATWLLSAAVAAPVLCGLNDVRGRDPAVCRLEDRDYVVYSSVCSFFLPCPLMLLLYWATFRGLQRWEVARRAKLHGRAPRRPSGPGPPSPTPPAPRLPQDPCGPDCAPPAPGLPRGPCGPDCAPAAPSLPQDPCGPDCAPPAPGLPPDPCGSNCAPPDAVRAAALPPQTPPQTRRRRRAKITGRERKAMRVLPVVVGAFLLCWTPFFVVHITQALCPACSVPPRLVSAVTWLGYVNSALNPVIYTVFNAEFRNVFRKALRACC"}, "[22]": {"biological_target": "LIM domain kinase 2 (Homo sapiens) (UniProt P53671)", "assay": "Inhibition of LIMK2(h) at 10.0 µM in the Eurofins Kinase panel"}, "[23]": {"biological_target": "Serine/threonine-protein kinase 17B (Homo sapiens) (UniProt O94768)", "assay": "Inhibition of DRAK2(h) at 10.0 µM in the Eurofins Kinase panel"}, "[24]": {"biological_target": "Serine/threonine-protein kinase PLK4 (Homo sapiens) (UniProt O00444)", "sequence (O00444 whole entry)": "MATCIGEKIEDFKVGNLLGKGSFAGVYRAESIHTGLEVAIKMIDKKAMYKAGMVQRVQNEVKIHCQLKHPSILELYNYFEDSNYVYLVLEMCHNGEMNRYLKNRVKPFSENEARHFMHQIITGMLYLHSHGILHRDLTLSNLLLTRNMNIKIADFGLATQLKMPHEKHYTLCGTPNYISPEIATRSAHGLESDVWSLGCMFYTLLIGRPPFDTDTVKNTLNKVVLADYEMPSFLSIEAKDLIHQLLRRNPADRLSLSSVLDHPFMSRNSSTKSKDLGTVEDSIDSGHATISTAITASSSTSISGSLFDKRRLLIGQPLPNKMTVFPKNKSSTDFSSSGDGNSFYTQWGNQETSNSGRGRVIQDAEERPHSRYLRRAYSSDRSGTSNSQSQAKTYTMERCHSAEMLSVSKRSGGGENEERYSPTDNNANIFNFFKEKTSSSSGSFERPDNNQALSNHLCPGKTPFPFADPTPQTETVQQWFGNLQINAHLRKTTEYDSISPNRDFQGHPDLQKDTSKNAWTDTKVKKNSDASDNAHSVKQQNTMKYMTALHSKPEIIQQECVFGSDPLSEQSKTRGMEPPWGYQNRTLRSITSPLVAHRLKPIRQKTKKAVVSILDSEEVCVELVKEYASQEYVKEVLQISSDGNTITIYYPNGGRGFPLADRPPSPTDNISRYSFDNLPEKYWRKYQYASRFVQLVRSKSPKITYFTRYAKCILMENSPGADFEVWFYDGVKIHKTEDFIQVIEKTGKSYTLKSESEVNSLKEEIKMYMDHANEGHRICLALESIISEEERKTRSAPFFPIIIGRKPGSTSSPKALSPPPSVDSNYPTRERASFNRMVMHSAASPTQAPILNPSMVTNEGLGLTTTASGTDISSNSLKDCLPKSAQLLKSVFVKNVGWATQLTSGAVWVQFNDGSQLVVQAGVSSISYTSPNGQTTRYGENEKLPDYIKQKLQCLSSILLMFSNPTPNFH", "assay": "Inhibition of Plk4(h) at 10.0 µM in the Eurofins Kinase panel"}, "[25]": {"biological_target": "Serine/threonine-protein kinase LATS1 (Homo sapiens) (UniProt O95835)", "assay": "Inhibition of LATS1(h) at 10.0 µM in the Eurofins Kinase panel"}, "[26]": {"biological_target": "5-hydroxytryptamine receptor 1B (Homo sapiens) (UniProt P28222)", "sequence (P28222 whole entry)": "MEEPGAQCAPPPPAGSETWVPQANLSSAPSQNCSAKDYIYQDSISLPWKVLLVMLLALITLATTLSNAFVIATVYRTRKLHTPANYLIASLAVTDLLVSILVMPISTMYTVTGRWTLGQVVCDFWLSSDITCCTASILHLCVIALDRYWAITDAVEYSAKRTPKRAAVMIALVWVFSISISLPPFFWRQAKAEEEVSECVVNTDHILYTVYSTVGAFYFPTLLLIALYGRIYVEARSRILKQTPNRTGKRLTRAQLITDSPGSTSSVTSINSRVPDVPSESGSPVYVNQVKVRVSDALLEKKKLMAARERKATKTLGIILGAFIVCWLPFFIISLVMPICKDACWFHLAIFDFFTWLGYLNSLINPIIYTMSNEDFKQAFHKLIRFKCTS"}, "[27]": {"biological_target": "Dual specificity tyrosine-phosphorylation-regulated kinase 3 (Homo sapiens) (UniProt O43781)", "assay": "Inhibition of DYRK3(h) at 10.0 µM in the Eurofins Kinase panel"}, "[28]": {"biological_target": "Calcium/calmodulin-dependent protein kinase type IV (Homo sapiens) (UniProt Q16566)", "assay": "Inhibition of CaMKIV(h) at 10.0 µM in the Eurofins Kinase panel"}}, "data": [{"smiles": "O=c1n(Cc2cncn2-c2cccc(Cl)c2)nc(-c2ccc(Cl)cc2)n1C[C@H](O)C(F)(F)F", "values": [{"measurement": "inhibition", "setting": "[1]", "result": -7.11, "unit": "%"}, {"measurement": "inhibition", "setting": "[2]", "result": 4.83, "unit": "%"}, {"measurement": "inhibition", "setting": "[3]", "result": -2.29, "unit": "%"}, {"measurement": "inhibition", "setting": "[4]", "result": -1, "unit": "%"}, {"measurement": "inhibition", "setting": "[5]", "result": 11.7, "unit": "%"}, {"measurement": "inhibition", "setting": "[6]", "result": -4.56, "unit": "%"}, {"measurement": "inhibition", "setting": "[7]", "result": 1.71, "unit": "%"}, {"measurement": "inhibition", "setting": "[8]", "result": 4.78, "unit": "%"}, {"measurement": "inhibition", "setting": "[9]", "result": 4.16, "unit": "%"}, {"measurement": "inhibition", "setting": "[10]", "result": 8.95, "unit": "%"}, {"measurement": "inhibition", "setting": "[11]", "result": 12.4, "unit": "%"}, {"measurement": "inhibition", "setting": "[12]", "result": 1.3, "unit": "%"}, {"measurement": "inhibition", "setting": "[13]", "result": -5.8, "unit": "%"}, {"measurement": "inhibition", "setting": "[14]", "result": 9.43, "unit": "%"}, {"measurement": "inhibition", "setting": "[15]", "result": 0.07, "unit": "%"}, {"measurement": "inhibition", "setting": "[16]", "result": -0.99, "unit": "%"}, {"measurement": "inhibition", "setting": "[17]", "result": 11.3, "unit": "%"}, {"measurement": "inhibition", "setting": "[18]", "result": 3.43, "unit": "%"}, {"measurement": "inhibition", "setting": "[19]", "result": -2.77, "unit": "%"}, {"measurement": "inhibition", "setting": "[20]", "result": 33.3, "unit": "%"}, {"measurement": "inhibition", "setting": "[21]", "result": -4.7, "unit": "%"}, {"measurement": "inhibition", "setting": "[22]", "result": 1.5, "unit": "%"}, {"measurement": "inhibition", "setting": "[23]", "result": -2.64, "unit": "%"}, {"measurement": "inhibition", "setting": "[24]", "result": 10.6, "unit": "%"}, {"measurement": "inhibition", "setting": "[25]", "result": -2.66, "unit": "%"}, {"measurement": "inhibition", "setting": "[26]", "result": 7.15, "unit": "%"}, {"measurement": "inhibition", "setting": "[27]", "result": -6.33, "unit": "%"}, {"measurement": "inhibition", "setting": "[28]", "result": 8.3, "unit": "%"}]}, {"smiles": "C[C@H](O)c1nc(Cn2nc(-c3ccc(Cl)cc3)n(C[C@H](O)C(F)(F)F)c2=O)nn1-c1cccc(Cl)c1", "note": "[PECAVAPTAN]", "values": [{"measurement": "inhibition", "setting": "[1]", "result": 2.07, "unit": "%"}, {"measurement": "inhibition", "setting": "[2]", "result": 1.02, "unit": "%"}, {"measurement": "inhibition", "setting": "[3]", "result": -2.51, "unit": "%"}, {"measurement": "inhibition", "setting": "[4]", "result": -1, "unit": "%"}, {"measurement": "inhibition", "setting": "[5]", "result": -2.55, "unit": "%"}, {"measurement": "inhibition", "setting": "[6]", "result": 0.7, "unit": "%"}, {"measurement": "inhibition", "setting": "[7]", "result": 1.59, "unit": "%"}, {"measurement": "inhibition", "setting": "[8]", "result": 7.11, "unit": "%"}, {"measurement": "inhibition", "setting": "[9]", "result": 0.84, "unit": "%"}, {"measurement": "inhibition", "setting": "[10]", "result": 10.8, "unit": "%"}, {"measurement": "inhibition", "setting": "[11]", "result": 13.1, "unit": "%"}, {"measurement": "inhibition", "setting": "[12]", "result": -7.49, "unit": "%"}, {"measurement": "inhibition", "setting": "[13]", "result": -4.81, "unit": "%"}, {"measurement": "inhibition", "setting": "[14]", "result": 7.88, "unit": "%"}, {"measurement": "inhibition", "setting": "[15]", "result": -6.4, "unit": "%"}, {"measurement": "inhibition", "setting": "[16]", "result": -1.01, "unit": "%"}, {"measurement": "inhibition", "setting": "[17]", "result": 4.21, "unit": "%"}, {"measurement": "inhibition", "setting": "[18]", "result": -0.04, "unit": "%"}, {"measurement": "inhibition", "setting": "[19]", "result": 1.28, "unit": "%"}, {"measurement": "inhibition", "setting": "[20]", "result": 46.8, "unit": "%"}, {"measurement": "inhibition", "setting": "[21]", "result": 19.5, "unit": "%"}, {"measurement": "inhibition", "setting": "[22]", "result": 0.25, "unit": "%"}, {"measurement": "inhibition", "setting": "[23]", "result": 2.39, "unit": "%"}, {"measurement": "inhibition", "setting": "[24]", "result": -5.71, "unit": "%"}, {"measurement": "inhibition", "setting": "[25]", "result": -5.36, "unit": "%"}, {"measurement": "inhibition", "setting": "[26]", "result": 4.87, "unit": "%"}, {"measurement": "inhibition", "setting": "[27]", "result": -1.79, "unit": "%"}, {"measurement": "inhibition", "setting": "[28]", "result": 10.3, "unit": "%"}]}]}
